# Source: PubChem BioAssay (NCI)
#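 Interpolation was linear, between the two tested concentrations surrounding the appropriate level; five concentrations were tested over 48 hours in 96-well plates. TGI is the concentration that stops growth completely.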
# Tests used:
# Assay in all cases: inhibition of tumour cell growth, NCI panel, 48 h
# [1] = test system: SNB-75 CNS
# [2] = test system: ACHN renal
# [3] = test system: SF-295 CNS
# [4] = test system: HCC-2998 colon
# [5] = test system: COLO 205 colon
# [6] = test system: SNB-19 CNS
# [7] = test system: OVCAR-8 ovarian
# [8] = test system: SK-OV-3 ovarian
# [9] = test system: A549 NSCLC
# [10] = test system: HT29 colon
# [11] = test system: LOX IMVI melanoma
# [12] = test system: DU-145 prostate
# [13] = test system: A498 renal
# [14] = test system: MDA-MB-231 breast
# [15] = test system: M14 melanoma
# [16] = test system: HOP-62 NSCLC
# [17] = test system: MALME-3M melanoma
# [18] = test system: HL-60(TB) leukemia
# [19] = test system: OVCAR-4 ovarian
# [20] = test system: UACC-62 melanoma
# [21] = test system: KM12 colon
# [22] = test system: EKVX NSCLC
# [23] = test system: IGROV1 ovarian
# [24] = test system: OVCAR-5 ovarian
# [25] = test system: SK-MEL-5 melanoma
# [26] = test system: 786-0 renal
# [27] = test system: UO-31 renal
# [28] = test system: HCT-15 colon
# [29] = test system: T-47D breast
# [30] = test system: PC-3 prostate
# [31] = test system: HOP-92 NSCLC
# [32] = test system: MOLT-4 leukemia
# [33] = test system: MDA-N
# [34] = test system: SK-MEL-2 melanoma
# [35] = test system: MDA-MB-435
# [36] = test system: UACC-257 melanoma
# [37] = test system: SW-620 colon
# [38] = test system: SN12C renal
# [39] = test system: K-562 leukemia
# [40] = test system: BT-549 breast
# [41] = test system: HCT-116 colon
# [42] = test system: OVCAR-3 ovarian
# [43] = test system: HS 578T breast
# [44] = test system: SK-MEL-28 melanoma
# [45] = test system: NCI-H460 lung
# [46] = test system: NCI-H226 lung
# [47] = test system: CCRF-CEM leukemia
# [48] = test system: NCI/ADR-RES ovarian
# [49] = test system: MCF7 breast
# [50] = test system: SF-539 CNS
# [51] = test system: U251 CNS
# [52] = test system: SR leukemia
# [53] = test system: TK-10 renal
# [54] = test system: CAKI-1 renal
# [55] = test system: NCI-H23 lung
# [56] = test system: SF-268 CNS
# [57] = test system: RPMI-8226 leukemia
# [58] = test system: NCI-H522 lung
compound,measurement,setting,value
O=C1/C(=C/c2ccc(Cl)cc2)CCC/C1=C\c1ccc(O)c(CN2CCCCC2)c1,TGI,[1],> 100 µM
same,TGI,[2],30.7 µM
same,TGI,[3],43.3 µM
same,TGI,[4],38.7 µM
same,TGI,[5],59.3 µM
same,TGI,[6],> 100 µM
same,TGI,[7],48.8 µM
same,TGI,[8],89.5 µM
same,TGI,[9],> 100 µM
same,TGI,[10],17.5 µM
same,TGI,[11],42.5 µM
same,TGI,[12],36.9 µM
same,TGI,[13],30 µM
same,TGI,[14],63.6 µM
same,TGI,[15],49.3 µM
same,TGI,[16],> 100 µM
same,TGI,[17],59.1 µM
same,TGI,[18],7.25 µM
same,TGI,[19],44.2 µM
same,TGI,[20],36 µM
same,TGI,[21],16.7 µM
same,TGI,[22],40.7 µM
same,TGI,[23],44 µM
same,TGI,[24],50.4 µM
same,TGI,[25],35.3 µM
same,TGI,[26],34.5 µM
same,TGI,[27],31.5 µM
same,TGI,[28],27.2 µM
same,TGI,[29],63.5 µM
same,TGI,[30],> 100 µM
same,TGI,[31],42.1 µM
same,TGI,[32],69.4 µM
same,TGI,[33],> 100 µM
same,TGI,[34],> 100 µM
same,TGI,[35],> 100 µM
same,TGI,[36],90.7 µM
same,TGI,[37],> 100 µM
same,TGI,[38],87.8 µM
same,TGI,[39],66.1 µM
same,TGI,[40],31 µM
same,TGI,[41],33.5 µM
same,TGI,[42],87.5 µM
same,TGI,[43],46 µM
same,TGI,[44],62.6 µM
same,TGI,[45],94.3 µM
same,TGI,[46],35.5 µM
same,TGI,[47],35 µM
same,TGI,[48],51.8 µM
same,TGI,[49],> 100 µM
same,TGI,[50],58.3 µM
same,TGI,[51],57.1 µM
same,TGI,[52],9.67 µM
same,TGI,[53],79.2 µM
same,TGI,[54],40.2 µM
same,TGI,[55],49.1 µM
Cc1cc(C)n(-c2nc3ccccc3c(=O)[nH]2)n1,TGI,[56],> 47.1 µM
same,TGI,[1],> 71.6 µM
same,TGI,[2],21.8 µM
same,TGI,[3],> 50.7 µM
same,TGI,[4],31.3 µM
same,TGI,[5],17.1 µM
same,TGI,[6],> 72.1 µM
same,TGI,[8],> 100 µM
same,TGI,[9],> 35.5 µM
same,TGI,[10],> 100 µM
same,TGI,[11],13.7 µM
same,TGI,[12],21.3 µM
same,TGI,[13],> 63.8 µM
same,TGI,[14],25.3 µM
same,TGI,[15],> 100 µM
same,TGI,[16],> 43.7 µM
same,TGI,[18],> 33.7 µM
same,TGI,[19],> 100 µM
same,TGI,[20],21.3 µM
same,TGI,[21],23.1 µM
same,TGI,[57],> 41.9 µM
same,TGI,[22],28.9 µM
same,TGI,[23],12.4 µM
same,TGI,[24],> 100 µM
same,TGI,[25],17.8 µM
same,TGI,[26],19.6 µM
same,TGI,[27],36.8 µM
same,TGI,[28],23.9 µM
same,TGI,[29],48.8 µM
same,TGI,[58],18.8 µM
same,TGI,[30],25.8 µM
same,TGI,[31],> 68.3 µM
same,TGI,[32],50.5 µM
same,TGI,[33],> 76.9 µM
same,TGI,[34],32.2 µM
same,TGI,[35],26.9 µM
same,TGI,[36],> 100 µM
same,TGI,[37],38.9 µM
same,TGI,[38],> 100 µM
same,TGI,[39],> 100 µM
same,TGI,[40],> 100 µM
same,TGI,[41],21.6 µM
same,TGI,[42],> 45 µM
same,TGI,[43],> 91.5 µM
same,TGI,[44],> 41.2 µM
same,TGI,[45],> 49.3 µM
same,TGI,[46],> 66.8 µM
same,TGI,[47],> 100 µM
same,TGI,[48],13.9 µM
same,TGI,[49],> 100 µM
same,TGI,[50],> 75 µM
same,TGI,[51],> 45.5 µM
same,TGI,[52],> 29.5 µM
same,TGI,[53],> 100 µM
same,TGI,[54],37.5 µM
same,TGI,[55],32.8 µM
